Data: patent US20120157494A1, “ISOINDOLYL COMPOUNDS” (priority 2010, published 2012)

Experiments:
hP2X7 = biological target: T1, hP2X7 (Homo sapiens, UniProt Q99572); test: Intracellular Calcium Flux (FLIPR) Assay; type: cell-based; conditions: 1321N1 cells stably expressing human P2X7; agonist 100 μM BzATP; 20 min equilibration with antagonist; read-out: FLIPR pIC50 hP2X7-1321n1 (converted)
T1 construct: 1321N1 cells stably expressing the full length human P2X7 gene (1321N1-hP2X7); expressed in transfected cells
T1 sequence (Q99572 1-595): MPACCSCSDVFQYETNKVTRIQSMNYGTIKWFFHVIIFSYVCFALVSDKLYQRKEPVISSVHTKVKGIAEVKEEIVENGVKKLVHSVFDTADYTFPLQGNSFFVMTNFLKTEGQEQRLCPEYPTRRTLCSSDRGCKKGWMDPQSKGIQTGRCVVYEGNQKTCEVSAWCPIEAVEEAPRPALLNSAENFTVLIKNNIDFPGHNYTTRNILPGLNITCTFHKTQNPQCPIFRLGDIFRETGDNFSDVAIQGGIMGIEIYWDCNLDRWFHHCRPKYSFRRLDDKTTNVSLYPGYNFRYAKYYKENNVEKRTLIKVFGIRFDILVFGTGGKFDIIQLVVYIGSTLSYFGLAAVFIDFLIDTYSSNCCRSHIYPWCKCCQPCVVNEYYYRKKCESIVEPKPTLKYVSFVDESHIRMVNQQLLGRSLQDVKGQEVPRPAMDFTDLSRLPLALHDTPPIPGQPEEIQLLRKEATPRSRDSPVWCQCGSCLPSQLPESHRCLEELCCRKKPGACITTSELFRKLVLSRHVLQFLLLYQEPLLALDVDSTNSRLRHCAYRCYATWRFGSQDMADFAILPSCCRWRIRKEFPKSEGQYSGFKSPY
Method: Stock solutions of compounds were prepared from powders as a 10 mM DMSO stock solution. These solutions were stored at RT during the two week period of these experiments to prevent freeze-thaw of the DMSO stocks. The DMSO stocks were added to the appropriate assay buffer at a concentration of 10 μM, and then diluted serially to the final concentrations that were tested. No observable precipitate was formed at any time during this process. The aqueous solutions of compounds as well as ATP (Sigma A7699) and BzATP (Sigma B6396) were prepared fresh for each day of experiment.
1321N1 cells stably expressing the full length human P2X7 gene (1321N1-hP2X7) and HEK293 cells stably expressing the full length rat P2X7 gene (HEK293-rP2X7) were obtained from the Roche Cell Culture Facility. 1321N1-hP2X7 cells were grown in Dulbecco's Modified Eagle's Medium (DMEM) high glucose supplemented with 10% FBS and 250 μg/mL G418. HEK293-rP2X7 cells were grown in DMEM/F-12 supplemented with 10% FBS, 1 mM CaCl2, 2 mM MgCl2, 2 mM L-Glutamine and 500 μg/ml G418. Cells were split such that they never became >70% confluent.
On the day prior to the experiment, 1321N1-hP2X7 or HEK293-rP2X7 cells were released into suspension with calcium-free PBS+Versene and washed by centrifugation with calcium-free PBS to remove the Versene. Cells were resuspended in growth medium at a density of 2.5×10^5 cells/mL and seeded into black walled, clear bottom 96 well plates (50,000 cells/well) approximately 18 hr prior to intracellular calcium flux experiments.
On the day of the experiment, plates were washed with FLIPR buffer (calcium- and magnesium-free Hank's Balanced Salt Solution (HBSS) supplemented with 10 mM Hepes, 2.5 mM probenecid and 2 mM calcium chloride) using a BIO-TEK 96 channel plate washer and incubated with […] fluo-3 dye at 37° C. for one hr. The dye was then removed by plate washing and the cells were allowed to equilibrate for 20 min at room temperature with antagonist or vehicle (FLIPR buffer). Agonist (100 μM BzATP final concentration for hP2X7; 5 μM BzATP final concentration or rP2X7) was added online with the FLIPR and fluorescence measurements made at 1 sec intervals for 60 sec followed by 3 sec intervals for a further 4 min (5 min total). A final addition of 5 μM ionomycin was made and the maximal BzATP-evoked fluorescence normalized to the maximal ionomycin-evoked fluorescence.

| IC50 (hP2X7) | melting point | Structure (SMILES) |
| --- | --- | --- |
| 155 nM |  | COc1ccccc1CNC(=O)C1CCCN(c2cccc3c2C(=O)N(Cc2ccncc2)C3=O)C1 (centres unmarked) [Compound I-1a, 1-(1,3-Dioxo-2-pyridin-4-ylmethyl-2,3-dihydro-1H-isoindol-4-yl)-piperidine-3-carboxylic acid 2-methoxy-benzylamide] |
| 55 nM |  | COc1ccccc1CNC(=O)[C@@H]1CCCN(c2cccc3c2C(=O)N(Cc2ccncc2)C3=O)C1 [Compound I-1b, (R)-1-(1,3-Dioxo-2-pyridin-4-ylmethyl-2,3-dihydro-1H-isoindol-4-yl)-piperidine-3-carboxylic acid 2-methoxy-benzylamide] |
| 741 nM |  | COc1ccccc1CNC(=O)[C@H]1CCCN(c2cccc3c2C(=O)N(Cc2ccncc2)C3=O)C1 [Compound I-2, (S)-1-(1,3-Dioxo-2-pyridin-4-ylmethyl-2,3-dihydro-1H-isoindol-4-yl)-piperidine-3-carboxylic acid 2-methoxy-benzylamide] |
| 107 nM |  | O=C(NCC12CC3CC(CC(C3)C1)C2)[C@@H]1CCCN(c2cccc3c2C(=O)N(Cc2ccncc2)C3=O)C1 [Compound I-3, (R)-1-(1,3-Dioxo-2-pyridin-4-ylmethyl-2,3-dihydro-1H-isoindol-4-yl)-piperidine-3-carboxylic acid (adamantan-1-ylmethyl)-amide] |
| 724 nM |  | COc1ccccc1NC(=O)[C@@H]1CCCN(c2cccc3c2C(=O)N(Cc2ccncc2)C3=O)C1 [Compound I-4, (R)-1-(1,3-Dioxo-2-pyridin-4-ylmethyl-2,3-dihydro-1H-isoindol-4-yl)-piperidine-3-carboxylic acid (2-methoxy-phenyl)-amide] |
| 355 nM |  | COc1ccccc1CNC(=O)[C@@H]1CCCN(c2cccc3c2C(=O)N(CC2CCOCC2)C3=O)C1 [Compound I-5, (R)-1-[1,3-Dioxo-2-(tetrahydro-pyran-4-ylmethyl)-2,3-dihydro-1H-isoindol-4-yl]-piperidine-3-carboxylic acid 2-methoxy-benzylamide] |
| 417 nM |  | COc1ccccc1CNC(=O)[C@@H]1CCCN(c2cccc3c2C(=O)N(Cc2cncs2)C3=O)C1 [Compound I-6, (R)-1-(1,3-Dioxo-2-thiazol-5-ylmethyl-2,3-dihydro-1H-isoindol-4-yl)-piperidine-3-carboxylic acid 2-methoxy-benzylamide] |
| 851 nM | 197 to 198 °C | O=C(NCc1ccccc1OC(F)(F)F)[C@@H]1CCCN(c2cccc3c2C(=O)N(Cc2ccncc2)C3=O)C1 [Compound I-7, (R)-1-(1,3-Dioxo-2-pyridin-4-ylmethyl-2,3-dihydro-1H-isoindol-4-yl)-piperidine-3-carboxylic acid 2-trifluoromethoxy-benzylamide] |
| 437 nM | 193 to 194 °C | O=C(NCc1cccs1)[C@@H]1CCCN(c2cccc3c2C(=O)N(Cc2ccncc2)C3=O)C1 [Compound I-8, (R)-1-(1,3-Dioxo-2-pyridin-4-ylmethyl-2,3-dihydro-1H-isoindol-4-yl)-piperidine-3-carboxylic acid (thiophen-2-ylmethyl)-amide] |
| 955 nM | 194 to 195 °C | CCOc1ccccc1CNC(=O)[C@@H]1CCCN(c2cccc3c2C(=O)N(Cc2ccncc2)C3=O)C1 [Compound I-9, (R)-1-(1,3-Dioxo-2-pyridin-4-ylmethyl-2,3-dihydro-1H-isoindol-4-yl)-piperidine-3-carboxylic acid 2-ethoxy-benzylamide] |
| 182 nM | 199 to 200 °C | COc1cccc(CNC(=O)[C@@H]2CCCN(c3cccc4c3C(=O)N(Cc3ccncc3)C4=O)C2)c1OC [Compound I-10, (R)-1-(1,3-Dioxo-2-pyridin-4-ylmethyl-2,3-dihydro-1H-isoindol-4-yl)-piperidine-3-carboxylic acid 2,3-dimethoxy-benzylamide] |
| 100 nM | 181 to 182 °C | O=C(NCc1ccccc1O)[C@@H]1CCCN(c2cccc3c2C(=O)N(Cc2ccncc2)C3=O)C1 [Compound I-11, (R)-1-(1,3-Dioxo-2-pyridin-4-ylmethyl-2,3-dihydro-1H-isoindol-4-yl)-piperidine-3-carboxylic acid 2-hydroxy-benzylamide] |
| 30.9 nM |  | CSc1ccccc1CNC(=O)[C@@H]1CCCN(c2cccc3c2C(=O)N(Cc2ccncc2)C3=O)C1 [Compound I-12, (R)-1-(1,3-Dioxo-2-pyridin-4-ylmethyl-2,3-dihydro-1H-isoindol-4-yl)-piperidine-3-carboxylic acid 2-methylsulfanyl-benzylamide] |
| 110 nM | 196 to 197 °C | O=C(NCc1ccccc1F)[C@@H]1CCCN(c2cccc3c2C(=O)N(Cc2ccncc2)C3=O)C1 [Compound I-13, (R)-1-(1,3-Dioxo-2-pyridin-4-ylmethyl-2,3-dihydro-1H-isoindol-4-yl)-piperidine-3-carboxylic acid 2-fluoro-benzylamide] |
| 912 nM | 186 to 187 °C | O=C(NCC1COCCO1)[C@@H]1CCCN(c2cccc3c2C(=O)N(Cc2ccncc2)C3=O)C1 (stereo partly drawn) [Compound I-14, (R)-1-(1,3-Dioxo-2-pyridin-4-ylmethyl-2,3-dihydro-1H-isoindol-4-yl)-piperidine-3-carboxylic acid ([1,4]dioxan-2-ylmethyl)-amide] |
| 708 nM | 172 to 173 °C | O=C(NCC1CCCCC1)[C@@H]1CCCN(c2cccc3c2C(=O)N(Cc2ccncc2)C3=O)C1 [Compound I-15, (R)-1-(1,3-Dioxo-2-pyridin-4-ylmethyl-2,3-dihydro-1H-isoindol-4-yl)-piperidine-3-carboxylic acid cyclohexylmethyl-amide] |
| 204 nM | 101 to 102 °C | CS(=O)(=O)c1ccccc1CNC(=O)[C@@H]1CCCN(c2cccc3c2C(=O)N(Cc2ccncc2)C3=O)C1 [Compound I-16, (R)-1-(1,3-Dioxo-2-pyridin-4-ylmethyl-2,3-dihydro-1H-isoindol-4-yl)-piperidine-3-carboxylic acid 2-methanesulfonyl-benzylamide] |
| 174 nM |  | C[C@H](CO)N1Cc2c(ccc(Cl)c2NC(=O)Cc2ccc(F)c(C(F)(F)F)c2)C1=O [Compound I-17, N-[5-Chloro-2-((R)-2-hydroxy-1-methyl-ethyl)-1-oxo-2,3-dihydro-1H-isoindol-4-yl]-2-(4-fluoro-3-trifluoromethyl-phenyl)-acetamide] |
| 39.8 nM |  | C[C@H](CO)N1Cc2c(ccc(Cl)c2NC(=O)CC23CC4CC(CC(C4)C2)C3)C1=O [Compound I-18a, 2-Adamantan-1-yl-N-[5-chloro-2-((R)-2-hydroxy-1-methyl-ethyl)-1-oxo-2,3-dihydro-1H-isoindol-4-yl]-acetamide] |
| 537 nM |  | C[C@H](CO)N1Cc2c(NC(=O)CC34CC5CC(CC(C5)C3)C4)c(Cl)cc(Cl)c2C1=O [Compound I-18b, 2-Adamantan-1-yl-N-[5,7-dichloro-2-((R)-2-hydroxy-1-methyl-ethyl)-1-oxo-2,3-dihydro-1H-isoindol-4-yl]-acetamide] |
| 331 nM | 151 to 152 °C | COCC(C)N1Cc2c(NC(=O)Cc3ccc(F)c(C(F)(F)F)c3)cccc2C1=O (centres unmarked) [Compound I-19, 2-(4-Fluoro-3-trifluoromethyl-phenyl)-N-[2-(2-methoxy-1-methyl-ethyl)-1-oxo-2,3-dihydro-1H-isoindol-4-yl]-acetamide] |
| 891 nM |  | COCCN1Cc2c(ccc(Cl)c2NC(=O)Cc2ccc(F)c(C(F)(F)F)c2)C1=O [Compound I-20, N-[5-Chloro-2-(2-methoxy-ethyl)-1-oxo-2,3-dihydro-1H-isoindol-4-yl]-2-(4-fluoro-3-trifluoromethyl-phenyl)-acetamide] |
